Reference: ChEMBL document CHEMBL3352237, “Synthesis and biological evaluation of novel peptide BF2 as an antibacterial agent against clinical isolates of vancomycin-resistant enterococci” (J Med Chem, 2014)

Columns and labels:
Type in all cases: functional
Enterococcus faecium [1] = assay: Antibacterial activity against vancomycin-resistant Enterococcus faecium clinical isolate 16475 after overnight incubation by two-fold serial dilution method
Enterococcus [2] = assay: Antibacterial activity against vancomycin-resistant Enterococcus ATCC 51299 after overnight incubation by two-fold serial dilution method
Enterococcus faecium [3] = assay: Antibacterial activity against vancomycin-resistant Enterococcus faecium clinical isolate 151495 after overnight incubation by two-fold serial dilution method
Enterococcus faecalis [4] = assay: Antibacterial activity against vancomycin-resistant Enterococcus faecalis clinical isolate 27728 after overnight incubation by two-fold serial dilution method
Enterococcus [5] = assay: Antibacterial activity against vancomycin-resistant Enterococcus ATCC 29212 after overnight incubation by two-fold serial dilution method
Enterococcus faecalis [6] = assay: Antibacterial activity against vancomycin-resistant Enterococcus faecalis clinical isolate 22/203 after overnight incubation by two-fold serial dilution method
Enterococcus faecium [7] = assay: Antibacterial activity against vancomycin-resistant Enterococcus faecium clinical isolate 12/266 after overnight incubation by two-fold serial dilution method
Enterococcus faecalis [8] = assay: Antibacterial activity against vancomycin-resistant Enterococcus faecalis clinical isolate 7846 after overnight incubation by two-fold serial dilution method
Enterococcus faecalis [9] = assay: Antibacterial activity against vancomycin-resistant Enterococcus faecalis clinical isolate 5814 after overnight incubation by two-fold serial dilution method
Enterococcus faecium [10] = assay: Antibacterial activity against vancomycin-resistant Enterococcus faecium clinical isolate 15/213 after overnight incubation by two-fold serial dilution method
Enterococcus faecium [11] = assay: Antibacterial activity against vancomycin-resistant Enterococcus faecium clinical isolate 29/203 after overnight incubation by two-fold serial dilution method
Enterococcus faecalis [12] = assay: Antibacterial activity against vancomycin-resistant Enterococcus faecalis clinical isolate 6093 after overnight incubation by two-fold serial dilution method
Enterococcus faecalis [13] = assay: Antibacterial activity against vancomycin-resistant Enterococcus faecalis clinical isolate 5642 after overnight incubation by two-fold serial dilution method
Enterococcus faecium [14] = assay: Antibacterial activity against vancomycin-resistant Enterococcus faecium clinical isolate 17301 after overnight incubation by two-fold serial dilution method
Enterococcus faecium [15] = assay: Antibacterial activity against vancomycin-resistant Enterococcus faecium clinical isolate 27/221 after overnight incubation by two-fold serial dilution method
Enterococcus faecium [16] = assay: Antibacterial activity against vancomycin-resistant Enterococcus faecium clinical isolate 7/27 after overnight incubation by two-fold serial dilution method
Enterococcus faecium [17] = assay: Antibacterial activity against vancomycin-resistant Enterococcus faecium clinical isolate 3864 after overnight incubation by two-fold serial dilution method
Enterococcus faecalis [18] = assay: Antibacterial activity against vancomycin-resistant Enterococcus faecalis clinical isolate 22626 after overnight incubation by two-fold serial dilution method
Enterococcus faecium [19] = assay: Antibacterial activity against vancomycin-resistant Enterococcus faecium clinical isolate 23/240 after overnight incubation by two-fold serial dilution method
Enterococcus faecalis [20] = assay: Antibacterial activity against vancomycin-resistant Enterococcus faecalis clinical isolate 7079 after overnight incubation by two-fold serial dilution method
Enterococcus faecium [21] = assay: Antibacterial activity against vancomycin-resistant Enterococcus faecium clinical isolate 6/22 after overnight incubation by two-fold serial dilution method
Enterococcus faecalis [22] = assay: Antibacterial activity against vancomycin-resistant Enterococcus faecalis clinical isolate 5648 after overnight incubation by two-fold serial dilution method
Enterococcus faecium [23] = assay: Antibacterial activity against vancomycin-resistant Enterococcus faecium clinical isolate 28/211 after overnight incubation by two-fold serial dilution method
Enterococcus faecium [24] = assay: Antibacterial activity against vancomycin-resistant Enterococcus faecium clinical isolate 5396 after overnight incubation by two-fold serial dilution method
Enterococcus faecalis [25] = assay: Antibacterial activity against vancomycin-resistant Enterococcus faecalis clinical isolate 7670 after overnight incubation by two-fold serial dilution method
Enterococcus faecium [26] = assay: Antibacterial activity against vancomycin-resistant Enterococcus faecium clinical isolate 8/224 after overnight incubation by two-fold serial dilution method
Enterococcus faecium [27] = assay: Antibacterial activity against vancomycin-resistant Enterococcus faecium clinical isolate 18906 after overnight incubation by two-fold serial dilution method
Enterococcus faecium [28] = assay: Antibacterial activity against vancomycin-resistant Enterococcus faecium clinical isolate 14643 after overnight incubation by two-fold serial dilution method
Enterococcus faecium [29] = assay: Antibacterial activity against vancomycin-resistant Enterococcus faecium clinical isolate 27/16917 after overnight incubation by two-fold serial dilution method; conditions: isolate 27/1691
Enterococcus faecium [30] = assay: Antibacterial activity against vancomycin-resistant Enterococcus faecium clinical isolate 31386 after overnight incubation by two-fold serial dilution method
Enterococcus faecium [31] = assay: Antibacterial activity against vancomycin-resistant Enterococcus faecium clinical isolate 31176 after overnight incubation by two-fold serial dilution method
Enterococcus faecalis [32] = assay: Antibacterial activity against vancomycin-resistant Enterococcus faecalis clinical isolate 7077 after overnight incubation by two-fold serial dilution method
Enterococcus faecium [33] = assay: Antibacterial activity against vancomycin-resistant Enterococcus faecium clinical isolate 12875 after overnight incubation by two-fold serial dilution method
Enterococcus faecium [34] = assay: Antibacterial activity against vancomycin-resistant Enterococcus faecium clinical isolate 10177 after overnight incubation by two-fold serial dilution method
Enterococcus faecalis [35] = assay: Antibacterial activity against vancomycin-resistant Enterococcus faecalis clinical isolate 387702 after overnight incubation by two-fold serial dilution method
Enterococcus faecium [36] = assay: Antibacterial activity against vancomycin-resistant Enterococcus faecium clinical isolate 147969 after overnight incubation by two-fold serial dilution method
Enterococcus faecium [37] = assay: Antibacterial activity against vancomycin-resistant Enterococcus faecium clinical isolate 16115 after overnight incubation by two-fold serial dilution method
Enterococcus faecalis [38] = assay: Antibacterial activity against vancomycin-resistant Enterococcus faecalis clinical isolate 21/235 after overnight incubation by two-fold serial dilution method
Enterococcus faecium [39] = assay: Antibacterial activity against vancomycin-resistant Enterococcus faecium clinical isolate 5484 after overnight incubation by two-fold serial dilution method
Enterococcus faecium [40] = assay: Antibacterial activity against vancomycin-resistant Enterococcus faecium clinical isolate 13246 after overnight incubation by two-fold serial dilution method
Enterococcus faecium [41] = assay: Antibacterial activity against vancomycin-resistant Enterococcus faecium clinical isolate 30/48 after overnight incubation by two-fold serial dilution method

Measured: MIC

H-RWRLLLLLKRH-OH
25 µg/mL: all assays above

H-RWRLLLLKRH-OH
12.5 µg/mL: all assays above

H-RWRLLLLKKF-OH
25 µg/mL: all assays above

CN[C@H](CC(C)C)C(=O)N[C@H]1C(=O)N[C@@H](CC(N)=O)C(=O)N[C@H]2C(=O)N[C@H]3C(=O)N[C@H](C(=O)N[C@H](C(=O)O)c4cc(O)cc(O)c4-c4cc3ccc4O)[C@H](O)c3ccc(c(Cl)c3)Oc3cc2cc(c3O[C@@H]2O[C@H](CO)[C@@H](O)[C@H](O)[C@H]2O[C@H]2C[C@](C)(N)[C@H](O)[C@H](C)O2)Oc2ccc(cc2Cl)[C@H]1O [VANCOMYCIN]
64 µg/mL: Enterococcus [2] | Enterococcus faecium [15] | Enterococcus faecium [17] | Enterococcus faecium [19] | Enterococcus faecium [21] | Enterococcus faecium [23] | Enterococcus faecium [24] | Enterococcus faecium [26] | Enterococcus faecium [27] | Enterococcus faecium [29] | Enterococcus faecium [30] | Enterococcus faecium [31] | Enterococcus faecium [33] | Enterococcus faecium [34] | Enterococcus faecium [36] | Enterococcus faecium [39] | Enterococcus faecium [41]
2 µg/mL: Enterococcus [5]
